Assay results reported in patent EP3070175A1, “TEST FOR DETERMINING SUSCEPTIBILITY OR RESISTANCE TO POLYMYXINS IN ENTEROBACTERIACEAE” (Université de Fribourg, priority 2015, dated 2016).

Key:
[1] = tested on: P. stuartii; test: Polymyxin test: colorimetric detection of growth (glucose metabolization, phenol red) in presence of colistin sulphate; assay type: cell-based; design: key: +, yellow; -, orange; conditions: strain Pstu; colistin sulphate 3.75 mg/L final; visual colour change, up to 4 h at 37°C
Protocol: (§1) Each inoculum was prepared by mixing 1 öse (10 µl) of a fresh culture of the tested bacteria in 5 ml of sterile NaCl 0.85% (at a density of 3 Mac Farland, i.e. about 10^9 CFU/ml).
(§2) 250 ml of reactive medium was prepared by mixing the compounds hereafter: • a broth powder of a non selective growth medium for bacteria, the Cation-Adjusted Mueller-Hinton broth (MHB-CA) : 6.25 g • a colour indicator, the phenol red : 0.0125 g • sterile distilled water 225 ml • sterile D (+)-glucose (10 %) anhydrous (sterilization by filtration) : 25 ml
(§3) The pH of the final reactive medium was adjusted to 6.6 and 6.7 with HCl 1M.
(§4) Colistin or polymyxin B was added or not at the concentration of 5 mg/L in the reactive medium. Standard colistin sulphate and polymyxin B were from Sigma Aldrich (Saint-Louis, France). Those antibiotic molecule powders were kept at 4°C before their use, whereas polymyxin dilutions were kept at -20°C.
(§5) For each strain, two wells of a plastic sterile plate with 96 shaped wells were inoculated in parallel with and without polymyxin (colistin sulphate or polymyxin B) in order to compare their colour change.
(§6) Plastic sterile plates were from Sarstedt (Nümbrecht, Germany). The tray may be prepared as follows : • 1. 150 µl of reactive medium colistin free (obtained in 1.) in the first line • 2. 150 µl of reactive medium with 5 mg/l of colistin sulphate in the second line (final concentration = 3.75 mg/l) • 3. 50 µl of NaCl alone in the first column (one well colistin-free and one well with colistin sulphate) (medium control) • 4. 50 µl of the bacterial suspension (obtained in 2.) for the control strains and for every strain in the other column (one well colistin-free and one well with colistin)
(§7) After mixing of the bacterial suspension to the reactive medium by pipetting up and down, the final concentration of bacteria was 2.5.10^8 CFU/ml in each well and the final selective concentration of colistin or polymyxin B in the well with polymyxin was 3.75 mg/L.
(§8) The results of the tests were recorded at 10 min (checking for no spontaneous colour change in the well) and then every hour for a maximum of 4 hours by visual inspection. No colour change of the well with colistin sulphate or polymyxin B indicated susceptibility to colistin sulphate or polymyxin B and negativity of those tests. On the contrary, a colour change (orange to yellow) indicates the positivity of the test meaning growth capability (related to glucose metabolism) in presence of colistin sulphate or polymyxin B, i.e. resistance to colistin sulphate or polymyxin B.
(§9) All experiments were repeated in triplicate.

[2] = tested on: C. freundii; test: as above; assay type: cell-based; design: key: +, yellow; -, orange; conditions: colistin sulphate 3.75 mg/L final, visual colour change, up to 4 h at 37°C
Protocol: as §1, §2, §3, §4, §5, §6, §7, §8, §9

[3] = tested on: E. cloacae; test: as above; assay type: cell-based; design: key: +, yellow; -, orange; conditions: colistin sulphate 3.75 mg/L final, visual colour change, up to 4 h at 37°C
Protocol: as §1, §2, §3, §4, §5, §6, §7, §8, §9

[4] = tested on: E. aerogenes; test: as above; assay type: cell-based; design: key: +, yellow; -, orange; conditions: strain 6 FR; colistin sulphate 3.75 mg/L final; visual colour change, up to 4 h at 37°C
Protocol: as §1, §2, §3, §4, §5, §6, §7, §8, §9

[5] = tested on: K. oxytoca; test: as above; assay type: cell-based; design: key: +, yellow; -, orange; conditions: strain C24; colistin sulphate 3.75 mg/L final; visual colour change, up to 4 h at 37°C
Protocol: as §1, §2, §3, §4, §5, §6, §7, §8, §9

[6] = tested on: P. mirabilis; test: as above; assay type: cell-based, Proteus mirabilis; design: key: +, yellow; -, orange; conditions: strain Pmir; colistin sulphate 3.75 mg/L final; visual colour change, up to 4 h at 37°C
Protocol: as §1, §2, §3, §4, §5
(§10) Plastic sterile plates were from Sarstedt (Nümbrecht, Germany). The tray may be prepared as follows : • 1. […]
(§11) The results of the tests were recorded at 10 min (checking for no spontaneous colour change in the well) and then every hour for a maximum of 4 hours by visual inspection. […]

[7] = tested on: E. coli; test: MIC determination, broth microdilution in Cation-Adjusted Mueller-Hinton broth (CLSI); assay type: cell-based, Escherichia coli; conditions: for Colistin resistance: EUCAST breakpoints
Protocol: (§12) Determination of MIC values were performed using the reference technique (broth microdilution in Cation-Adjusted Mueller-Hinton broth) according to the CLSI guidelines. Polymyxin B and colistin (Sigma-Aldrich, Saint-Louis) were tested over a range dilution from 0.12 to 128 µg/ml and 5.10^5 CFU/ml of bacteria in each well was used. Following the EUCAST breakpoints (http://www.eucast.org/), strains with a colistin MICs of ≤ 2 µg/ml were categorized as susceptible, although those with MICs of > 2 µg/ml were resistant.
as §9

[8] = tested on: S. marcescens; test: Polymyxin test: colorimetric detection of growth (glucose metabolization, phenol red) in presence of colistin sulphate; assay type: cell-based, Serratia marcescens; design: key: +, yellow; -, orange; conditions: strain Smar; colistin sulphate 3.75 mg/L final; visual colour change, up to 4 h at 37°C
Protocol: as §1, §2, §3, §4, §5, §10, §11

[9] = tested on: K. pneumoniae; test: MIC determination, broth microdilution in Cation-Adjusted Mueller-Hinton broth (CLSI); assay type: cell-based, Klebsiella pneumoniae; conditions: for Colistin resistance: EUCAST breakpoints
Protocol: as §12, §9

colistin sulphate
Results of the method of the invention [1]: +
Results of the method of the invention ([2]; strain 8 FR): -
Results of the method of the invention ([2]; strain C136): -
Results of the method of the invention ([3]; strain 7 FR): -
Results of the method of the invention ([3]; strain C28): +
Results of the method of the invention ([3]; strain C129): -
Results of the method of the invention ([3]; strain C144): -
Results of the method of the invention ([3]; strain HM): +
Results of the method of the invention [4]: -
Results of the method of the invention [5]: +
Results of the method of the invention [6]: +
Colistin MIC ([7]; strain 3 FR): 0.12 µg/mL
Colistin resistance ([7]; strain 3 FR): - (strains with a colistin MICs of ≤ 2 µg/ml were categorized as susceptible)
Colistin MIC ([7]; strain 5 FR): 0.25 µg/mL
Colistin resistance ([7]; strain 5 FR): - (strains with a colistin MICs of ≤ 2 µg/ml were categorized as susceptible)
Colistin MIC ([7]; strain 10 FR): 0.25 µg/mL
Colistin resistance ([7]; strain 10 FR): - (strains with a colistin MICs of ≤ 2 µg/ml were categorized as susceptible)
Colistin resistance ([7]; strain 27563): + (those with MICs of > 2 µg/ml were resistant)
Colistin MIC ([7]; strain 27563, resistance mechanism Unknown): 16 µg/mL
Colistin resistance ([7]; strain 27837): + (those with MICs of > 2 µg/ml were resistant)
Colistin MIC ([7]; strain 27837, resistance mechanism Unknown): 16 µg/mL
Colistin resistance ([7]; strain 27850): + (those with MICs of > 2 µg/ml were resistant)
Colistin MIC ([7]; strain 27850, resistance mechanism Unknown): 16 µg/mL
Colistin resistance ([7]; strain 27852): + (those with MICs of > 2 µg/ml were resistant)
Colistin MIC ([7]; strain 27852, resistance mechanism Unknown): 8 µg/mL
Colistin resistance ([7]; strain 30742): + (those with MICs of > 2 µg/ml were resistant)
Colistin MIC ([7]; strain 30742, resistance mechanism Unknown): 8 µg/mL
Colistin MIC ([7]; strain ATCC 25922): 0.25 µg/mL
Colistin resistance ([7]; strain ATCC 25922): - (strains with a colistin MICs of ≤ 2 µg/ml were categorized as susceptible)
Colistin MIC ([7]; strain C140): 0.12 µg/mL
Colistin resistance ([7]; strain C140): - (strains with a colistin MICs of ≤ 2 µg/ml were categorized as susceptible)
Colistin MIC ([7]; strain Top10): 0.12 µg/mL
Colistin resistance ([7]; strain Top10): - (strains with a colistin MICs of ≤ 2 µg/ml were categorized as susceptible)
Results of the method of the invention [8]: +
Colistin MIC ([9]; strain 1 FR): 0.12 µg/mL
Colistin resistance ([9]; strain 1 FR): - (strains with a colistin MICs of ≤ 2 µg/ml were categorized as susceptible)
Colistin MIC ([9]; strain 2 FR): 0.12 µg/mL
Colistin resistance ([9]; strain 2 FR): - (strains with a colistin MICs of ≤ 2 µg/ml were categorized as susceptible)
Colistin MIC ([9]; strain 4 FR): 0.25 µg/mL
Colistin resistance ([9]; strain 4 FR): - (strains with a colistin MICs of ≤ 2 µg/ml were categorized as susceptible)
Colistin MIC ([9]; strain 9 FR): 0.5 µg/mL
Colistin resistance ([9]; strain 9 FR): - (strains with a colistin MICs of ≤ 2 µg/ml were categorized as susceptible)
Colistin resistance ([9]; strain 11 FR): + (those with MICs of > 2 µg/ml were resistant)
Colistin MIC ([9]; strain 11 FR, resistance mechanism Unknown): 32 µg/mL
Colistin resistance ([9]; strain 75b): + (those with MICs of > 2 µg/ml were resistant)
Colistin MIC ([9]; strain 75b, PhoP D191Y): 128 µg/mL
Colistin resistance ([9]; strain AF1b): + (those with MICs of > 2 µg/ml were resistant)
Colistin MIC ([9]; strain AF1b, PmrB T157P): 16 µg/mL
Colistin resistance ([9]; strain C23): + (those with MICs of > 2 µg/ml were resistant)
Colistin MIC ([9]; strain C23, ΔmgrB): 128 µg/mL
Colistin resistance ([9]; strain C25): + (those with MICs of > 2 µg/ml were resistant)
Colistin MIC ([9]; strain C25, PmrA G53C): 64 µg/mL
Colistin resistance ([9]; strain C26): + (those with MICs of > 2 µg/ml were resistant)
Colistin MIC ([9]; strain C26, mgrB gene truncated with IS): 128 µg/mL
Colistin resistance ([9]; strain C27): + (those with MICs of > 2 µg/ml were resistant)
Colistin MIC ([9]; strain C27, mgrB Δnt23/33 (frameshift)): >128 µg/mL
Colistin MIC ([9]; strain C112): 0.12 µg/mL
Colistin resistance ([9]; strain C112): - (strains with a colistin MICs of ≤ 2 µg/ml were categorized as susceptible)
Colistin MIC ([9]; strain C115): 0.12 µg/mL
Colistin resistance ([9]; strain C115): - (strains with a colistin MICs of ≤ 2 µg/ml were categorized as susceptible)
Colistin MIC ([9]; strain C130): 0.12 µg/mL
Colistin resistance ([9]; strain C130): - (strains with a colistin MICs of ≤ 2 µg/ml were categorized as susceptible)
Colistin MIC ([9]; strain C132): 0.12 µg/mL
Colistin resistance ([9]; strain C132): - (strains with a colistin MICs of ≤ 2 µg/ml were categorized as susceptible)
Colistin resistance ([9]; strain T1b): + (those with MICs of > 2 µg/ml were resistant)
Colistin MIC ([9]; strain T1b, mgrB gene truncated with IS5-like): 128 µg/mL
